Data published in US20210330788A1, “USES OF ANTI-BCMA CHIMERIC ANTIGEN RECEPTORS” (CELGENE CORPORATION, priority 2018, published 2021).

System: human multiple myeloma (RPMI-8226) tumors
Test: Sub-cutaneous human multiple myeloma (RPMI-8226) tumor model in NSG mice (FIGS. 8A and 8B)
Format: in vivo, NOD scid gamma (NSG) mice
Conditions: ˜100mm^3 tumors; 10^7 CAR T cells or Bortezomib; two independent experiments
Experimental: Hyperactivation and increased apoptosis could negatively impact CAR T cell persistence in patients and ultimately clinical efficacy. The anti-tumor function of anti-BCMA02 CAR T cells and anti-BCMA10 CAR T cells was examined in a mouse tumor model. NOD-scid gamma (NSG) mice with ˜100mm^3 experimental sub-cutaneous human multiple myeloma (RPMI-8226) tumors were treated with 10^7 anti-BCMA02 CAR T cells, 10^7 anti-BCMA10 CAR T cells, or Bortezomib (VELCADE®). RPMI-8226 growth was monitored with calipers.

SMILES: CC(C)C[C@H](NC(=O)[C@H](Cc1ccccc1)NC(=O)c1cnccn1)B(O)O [Bortezomib]
- RPMI-8226 tumor growth (calipers): controlled tumor growth
